Measured values published in patent US20250122155A1, “NOVEL INDOLE DERIVATIVE, PHARMACEUTICAL COMPOSITION COMPRISING SAME, AND USE THEREOF” (MITOIMMUNE THERAPEUTICS INC., priority 2021, published 2025).

Test system: H9C2 cells
Experiment: Protective effect on heart cells against t-BHP (LDH release)
Type: cell-based
Conditions: H9C2, t-BHP 400 μM, 2 hours, read-out: EC50 (μM), Cell Protection Effect against t-BHP in Heart Cells
Protocol: In order to identify the protective effect with regard to heart cells, H9C2 cells were divided into 96-well plates by 1.5×10^4, and cultured for 24 hours. The respective wells were treated with compounds of the examples 3× serial diluted to final concentrations of 30, 10, 3, 1, 0.3, 0.1, 0.03 and 0.01 μM, then incubated for 15 to 20 minutes. After treating with t-BHP with a final concentration of 400 μM, incubation was performed for 2 hours. To confirm the protective effect of each compound, a Cytotoxicity LDH assay kit [Dojindo; CK12] was used to measure the degree of extracellular secretion of LDH. After 2-hour treatment of the cells with t-BHP was completed, 100 μL each of the supernatant in which the cells were placed was collected and moved to a new 96-well plate. 100 μL/well of the assay buffer included in the kit (same amount as the sample) was added, followed by wrapping with foil and reacting for 30 minutes at room temperature. Observing the change of color in the sample, 50 μL/well of stop solution was added, then an iD3 spectrometer was used to measure absorbance at 490 nm and calculate the EC50 values. The EC50 of the compounds of the examples is preferably no more than 1.0 μM, and more preferably no more than 0.3 μM.

SMILES | EC50 [µM]
COCCOCc1cc(NCc2cccs2)c2[nH]c(-c3ccccc3)cc2c1 [Example 43, 5-(2-methoxyethoxymethyl)-2-phenyl-N-(2-thienylmethyl)-1H-indol-7-amine] | 0.3 to 1
COCCNc1cc(COCCOC)cc2cc(-c3ccccc3)[nH]c12 [Example 46, 5-(2-methoxyethoxymethyl)-N-(2-methoxyethyl)-2-phenyl-1H-indol-7-amine] | ≤ 0.3
COCCCNc1cc(COCCOC)cc2cc(-c3ccccc3)[nH]c12 [Example 47, 5-(2-methoxyethoxymethyl)-N-(3-methoxypropyl)-2-phenyl-1H-indol-7-amine] | ≤ 0.3
COCCOCc1cc(NC2CCOCC2)c2[nH]c(-c3cccc(F)c3)cc2c1 [Example 48, 2-(3-fluorophenyl)-5-(2-methoxyethoxymethyl)-N-tetrahydropyran-4-yl-1H-indol-7-amine] | ≤ 0.3
COCCOCc1cc(NC2CCCC2)c2[nH]cc(C)c2c1 [Example 49, N-cyclopentyl-5-(2-methoxyethoxymethyl)-3-methyl-1H-indol-7-amine] | 0.3 to 1
COCCOCc1cc(NC2CCCC2)c2[nH]cc(-c3ccccc3)c2c1 [Example 51, N-cyclopentyl-5-(2-methoxyethoxymethyl)-3-phenyl-1H-indol-7-amine] | ≤ 0.3
COCCOCc1cc(NC2CCCC2)c2[nH]c(-c3ccc(Br)cc3)cc2c1 [Example 54, 2-(4-bromophenyl)-N-cyclopentyl-5-((2-methoxyethoxy)methyl)-1H-indol-7-amine] | ≤ 0.3
COCCOCc1cc(NC2CCOCC2)c2[nH]c(-c3ccc(Br)cc3)cc2c1 [Example 55, 2-(4-bromophenyl)-5-((2-methoxyethoxy)methyl)-N-(tetrahydro-2H-pyran-4-yl)-1H-indol-7-amine] | ≤ 0.3
COCCOCc1cc(NC2CCOCC2)c2[nH]c(-c3ccc(C#CC(C)(C)O)cc3)cc2c1 [Example 59, 4-(4-(5-((2-methoxyethoxy)methyl)-7-((tetrahydro-2H-pyran-4-yl)amino)-1H-indol-2-yl)phenyl)-2-methylbut3-yn-2-ol] | 0.3 to 1
COCCOCc1cc(NC2CCOCC2)c2[nH]c(-c3ccc(C)cc3)cc2c1 [Example 60, 5-((2-methoxyethoxy)methyl)-N-(tetrahydro-2H-pyran-4-yl)-2-(p-tolyl)-1H-indol-7-amine] | ≤ 0.3
COCCOCCCc1cc(NC2CCOCC2)c2[nH]c(-c3ccccc3)cc2c1 [Example 65, 5-(3-(2-methoxyethoxy)propyl)-2-phenyl-N-(tetrahydro-2H-pyran-4-yl)-1H-indol-7-amine] | ≤ 0.3
COCCOCCc1cc(NC2CCCC2)c2[nH]c(-c3ccccc3)cc2c1 [Example 66, N-cyclopentyl-5-(2-(2-methoxyethoxy)ethyl)-2-phenyl-1H-indol-7-amine] | ≤ 0.3

Results, then the compound that gave them:

EC50 [µM] | SMILES
≤ 0.3 | CCOC(=O)N1CCC(Nc2cc(COCCOC)cc3cc(-c4ccccc4)[nH]c23)CC1 [Example 44, Ethyl 4-[[5-(2-methoxyethoxymethyl)-2-phenyl-1H-indol-7-yl]amino]piperidine-1-carboxylate]
≤ 0.3 | COCCOCc1cc(NC2CCOCC2)c2[nH]cc(-c3ccccc3)c2c1 [Example 52, 5-(2-methoxyethoxymethyl)-3-phenyl-N-tetrahydropyran-4-yl-1H-indol-7-amine]
0.3 to 1 | COCCOCc1cc(NC2CCOCC2)c2c(c1)cc(-c1ccccc1)n2C [Example 53, 5-((2-methoxyethoxy)methyl)-1-methyl-2-phenyl-N-(tetrahydro-2H-pyran-4-yl)-1H-indol-7-amine]
≤ 0.3 | COCCOCc1cc(NC2CCCC2)c2[nH]c(-c3ccc(P(C)(C)=O)cc3)cc2c1 [Example 56, (4-(7-(cyclopentylamino)-5-((2-methoxyethoxy)methyl)-1H-indol-2-yl)phenyl)dimethylphosphine oxide]
> 1 | COCCOCc1cc(NC2CCOCC2)c2[nH]c(-c3ccc(P(C)(C)=O)cc3)cc2c1 [Example 57]
0.3 to 1 | COCCOCc1cc(NC2CCCC2)c2[nH]c(-c3ccc(C#CC(C)(C)O)cc3)cc2c1 [Example 58, 4-(4-(7-(cyclopentylamino)-5-((2-methoxyethoxy)methyl)-1H-indol-2-yl)phenyl)-2-methylbut-3-yn-2-ol]
≤ 0.3 | COCCCOCc1cc(NC2CCCC2)c2[nH]c(-c3ccccc3)cc2c1 [Example 61, N-cyclopentyl-5-((3-methoxypropoxy)methyl)-2-phenyl-1H-indol-7-amine]
≤ 0.3 | COCCCOCc1cc(NC2COC2)c2[nH]c(-c3ccccc3)cc2c1 [Example 62, 5-((3-methoxypropoxy)methyl)-N-(oxetan-3-yl)-2-phenyl-1H-indol-7-amine]
0.3 to 1 | COCCCOCc1cc(NC2CCOCC2)c2[nH]c(-c3ccccc3)cc2c1 [Example 63, 5-((3-methoxypropoxy)methyl)-2-phenyl-N-(tetrahydro-2H-pyran-4-yl)-1H-indol-7-amine]
≤ 0.3 | COCCOCCc1cc(NC2CCOCC2)c2[nH]c(-c3ccccc3)cc2c1 [Example 67, 5-(2-(2-methoxyethoxy)ethyl)-2-phenyl-N-(tetrahydro-2H-pyran-4-yl)-1H-indole-7-amine]
> 1 | COCCOCc1cc(N2CCCCC2)c2[nH]c(-c3ccccc3)cc2c1 [Example 68, 5-((2-methoxyethoxy)methyl)-2-phenyl-7-(piperidin-1-yl)-1H-indole]
